Experiments:
[1] = molecular target: His-tagged human recombinant kinase full-length Akt2 (Homo sapiens (Human), UniProt P31751); test: Akt2 kinase assay (TR-FRET); format: biochemical; details: 10 μM ATP, read-out: Akt2, median IC50
Source text: Biological Assay 2.0: Akt2 Kinase Assay
Akt2 inhibitory activity of compounds of the present invention was quantified employing the Akt2 TR-FRET assay as described in the following paragraphs.
(§1) His-tagged human recombinant kinase full-length Akt2 expressed in insect cells and activated by PDK1 was purchased from Invitrogen (part number PV 3975). As substrate for the kinase reaction the biotinylated peptide biotin-Ahx-KKLNRTLSFAEPG (C-terminus in amide form) was used which can be purchased e.g. from the company Biosynthan GmbH (Berlin-Buch, Germany).
(§2) For the assay 50 nl of a 100 fold concentrated solution of the test compound in DMSO was pipetted into a black low volume 384 well microtiter plate (Greiner Bio-One, Frickenhausen, Germany), 2 μl of a solution of Akt2 in assay buffer [50 mM TRIS/HCl pH 7.5, 5 mM MgCl2, 1 mM dithiothreitol, 0.02% (v/v) Triton X-100 (Sigma)] were added and the mixture was incubated for 15 min at 22° C. to allow prebinding of the test compounds to the enzyme before the start of the kinase reaction. Then the kinase reaction was started by the addition of 3 μl of a solution of adenosine-tri-phosphate (ATP, 16.7 μM=>final conc. in the 5 μl assay volume is 10 μM) and substrate (1.67 μM=>final conc. in the 5 μl assay volume is 1 μM) in assay buffer and the resulting mixture was incubated for a reaction time of 60 min at 22° C. The concentration of Akt2 in the assay was adjusted depending of the activity of the enzyme lot and was chosen appropriate to have the assay in the linear range, typical enzyme concentrations were in the range of about 0.2 ng/μl (final conc. in the 5 μl assay volume).
(§3) The reaction was stopped by the addition of 5 μl of a solution of HTRF detection reagents (200 nM streptavidine-XL665 [Cisbio] and 1.5 nM anti-phosho-Serine antibody [Millipore, cat. #35-001] and 0.75 nM LANCE Eu-W 1024 labeled anti-mouse IgG antibody [Perkin Elmer]) in an aqueous EDTA-solution (100 mM EDTA, 0.1% (w/v) bovine serum albumin in 50 mM HEPES/NaOH pH 7.5).
(§4) The resulting mixture was incubated 1 h at 22° C. to allow the binding of the biotinylated phosphorylated peptide to the streptavidine-XL665 and the antibodies. Subsequently the amount of phosphorylated substrate was evaluated by measurement of the resonance energy transfer from the anti-mouse-IgG-Eu-Chelate to the streptavidine-XL665. Therefore, the fluorescence emissions at 620 nm and 665 nm after excitation at 350 nm was measured in a TR-FRET reader, e.g. a Rubystar (BMG Labtechnologies, Offenburg, Germany) or a Viewlux (Perkin-Elmer). The ratio of the emissions at 665 nm and at […] was taken as the measure for the amount of phosphorylated substrate. The data were normalised (enzyme reaction without inhibitor=0% inhibition, all other assay components but no enzyme=100% inhibition).

[2] = molecular target: His-tagged human recombinant kinase full-length Akt1 (Homo sapiens (Human), UniProt P31749); test: Akt1 kinase assay (TR-FRET); format: biochemical; details: 10 μM ATP, read-out: Akt1, median IC50
His-tagged human recombinant kinase full-length Akt1, sequence (P31749 whole entry): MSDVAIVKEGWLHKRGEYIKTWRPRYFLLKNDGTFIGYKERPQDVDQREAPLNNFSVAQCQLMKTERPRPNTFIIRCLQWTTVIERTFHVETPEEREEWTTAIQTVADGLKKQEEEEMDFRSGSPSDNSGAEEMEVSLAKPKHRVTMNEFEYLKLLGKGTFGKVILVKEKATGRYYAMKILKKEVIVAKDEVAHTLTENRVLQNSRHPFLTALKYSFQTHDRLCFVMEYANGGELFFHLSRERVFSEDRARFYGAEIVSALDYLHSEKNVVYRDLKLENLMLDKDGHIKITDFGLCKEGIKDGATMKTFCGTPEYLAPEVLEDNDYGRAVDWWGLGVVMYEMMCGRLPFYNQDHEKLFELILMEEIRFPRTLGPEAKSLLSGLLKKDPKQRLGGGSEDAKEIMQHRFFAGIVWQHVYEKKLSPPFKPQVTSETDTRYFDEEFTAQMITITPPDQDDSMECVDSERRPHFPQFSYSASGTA
Source text: Biological Assay 1.0: Akt1 Kinase Assay
Akt1 inhibitory activity of compounds of the present invention was quantified employing the Akt1 TR-FRET assay as described in the following paragraphs.
as §1, with “full-length Akt1” for “full-length Akt2”, “cells” for “cells and activated by PDK1”, “purchased form” for “purchased from”, “PV 3599).” for “PV 3975).”
as §2, with “Akt1” for “Akt2”, “0.05” for “0.2”
as §3
as §4, with “HTRF” for “TR-FRET”

phospho-AKT at S473 = test: Cellular p-AKT1/2/3-S473 assay in KPL-4 cells; format: cell-based; details: Homo sapiens, KPL4; KPL-4 breast tumour cell line, 2 hours treatment; read-out: pAKT-S743 median IC50
Protocol: The phospho-substrates of PI3K-AKT-mTOR axis were used as the readouts to reflect pathway inhibition. Cells were seeded at 60-80% confluency per well in 96-well cell culture plates. After overnight incubation at 37° C. 5% CO2, cells were treated with compounds and vehicle at 37° C. for 2 hours. […] All measurements where at least done in duplicates and confirmed by independent repetition. Alternatively pAKT-S473 was measured using the “Akt Duplex” of the MULTI-SPOT® Assay System (Fa. Meso Scale Discovery, Cat# N41100B-1) following manufacturers instructions. Each assay used 20 μg of protein extract and measured total AKT and p-AKT content simultaneously in one well. All measurements where at least done in duplicates and confirmed by independent repetition. Values for P-AKT are expressed as percentage of P-AKT level compared to total-AKT content of the extracts.

[3] = system: MCF-7 breast tumour cell line; test: Tumor cell proliferation assay (CellTiter-Glo, 72 h), MCF-7; format: cell-based; details: Homo sapiens, MCF7, 72 h drug exposure
Protocol: (§5) Biological Assay 4.0: Tumor Cell Proliferation Assays
(§6) Compounds were tested in a cell-based assay that measures the capacity of the compounds to inhibit tumour cell proliferation following a 72 h drug exposure. Cell viability is determined using CellTiter-Glow® (CTG, Promega, cat# G7571/2/3). The CellTiter-Glo® Luminescent Cell Viability Assay is a homogeneous method to determine the number of viable cells in culture. Detection is based on using the luciferase reaction to measure the amount of ATP from viable cells. The amount of ATP in cells correlates with cell viability. Within minutes after a loss of membrane integrity, cells lose the ability to synthesize ATP, and endogenous ATPases destroy any remaining ATP; thus the levels of ATP fall precipitously.
(§7) Cells were plated at 3000-5000 cells/well (depending on the cell lines) in 90 μL growth medium on MTPs (Corning; #3603, black plate, clear flat bottom). For each cell line assayed, cells were plated onto a separate plate for determination of […] at t=0 hour and t=72 hour time points. Following overnight incubation at 37° C., chemiluminescence values for the t=0 samples were determined after adding 10 μl medium and 100 μl CTG solution according to manufacture protocol. Plates for the t=72 hour time points were treated with compounds diluted into growth medium at ten times final concentration added in 10 μL to the cell culture plate. Cells were then incubated for 72 hours at 37° C. Chemiluminescence values for the t=72 hour samples were determined. […] Experiments were controlled using a reference compound as standard.
(§8) Preferred compounds of the present invention show in this assay an inhibition of cell growth of cell lines such as the KPL-4 breast cancer cell line and the MCF-7 breast tumour cell line ([…], hormone dependent) with a median IC50 of <10 μM, more preferably, median IC50≦1 μM.

[4] = system: KPL-4 breast cancer cell line; test: Tumor cell proliferation assay (CellTiter-Glo, 72 h), KPL-4; format: cell-based; details: Homo sapiens, KPL4, 72 h drug exposure
Protocol: as §5, §6, §7, §8

p-4E-BP1 at T70 = test: Cellular p-4E-BP1-T70 assay in KPL-4 cells; format: cell-based; details: Homo sapiens, KPL4; KPL-4 breast tumour cell line, 2 hours treatment; read-out: P4EBP1-T70 median IC50
Protocol: The molecular mechanism of action was investigated in a set of experiments to assess the inhibition of the PI3K-AKT-mTOR pathway in responsive cell lines such as KPL-4 breast tumour cell line (PIK3CA^H1047R, HER2^O/E and hormone independent). The phospho-substrates of PI3K-AKT-mTOR axis were used as the readouts to reflect pathway inhibition. Cells were seeded at 60-80% confluency per well in 96-well cell culture plates. After overnight incubation at 37° C. 5% CO2, cells were treated with compounds and vehicle at 37° C. for 2 hours. Thereafter, cells were lysed in 150 μl lysis buffer and the levels of phospho-AKT at T308 and S473 and p-4E-BP1 at T70 sites were determined with the corresponding AlphaScreen® SureFire® assay kits (Perkin Elmer: 4E-BP1 Assay Kit Cat # TRG4E2S10K; Akt 1/2/3 p-Ser 473 #TGRA4S500 and Akt 1/2/3 p-Thr 308 #TGRA3S500 as well as IgG detection Kit #6760617M) as described in the manuals. All measurements where at least done in duplicates and confirmed by independent repetition. Alternatively pAKT-S473 was measured using the “Akt Duplex” of the MULTI-SPOT® Assay System (Fa. Meso Scale Discovery, Cat# N41100B-1) following manufacturers instructions. Each assay used 20 μg of protein extract and measured total AKT and p-AKT content simultaneously in one well. All measurements where at least done in duplicates and confirmed by independent repetition. Values for P-AKT are expressed as percentage of P-AKT level compared to total-AKT content of the extracts.

His-tagged human recombinant kinase full-length Akt2, sequence (P31751 whole entry): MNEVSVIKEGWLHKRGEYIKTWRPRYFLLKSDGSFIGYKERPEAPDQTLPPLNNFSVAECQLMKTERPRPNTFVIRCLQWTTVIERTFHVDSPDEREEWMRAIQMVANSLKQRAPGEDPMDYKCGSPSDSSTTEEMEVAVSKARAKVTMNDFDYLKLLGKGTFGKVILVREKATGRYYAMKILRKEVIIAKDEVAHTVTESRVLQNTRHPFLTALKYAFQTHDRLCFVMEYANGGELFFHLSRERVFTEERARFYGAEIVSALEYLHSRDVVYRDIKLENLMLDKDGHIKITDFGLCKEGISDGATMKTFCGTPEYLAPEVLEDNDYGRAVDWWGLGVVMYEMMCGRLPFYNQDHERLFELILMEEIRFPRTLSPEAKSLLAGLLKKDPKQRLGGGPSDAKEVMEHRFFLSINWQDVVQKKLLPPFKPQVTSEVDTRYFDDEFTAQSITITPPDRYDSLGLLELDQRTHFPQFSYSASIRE

IC50 [1] [nM] | IC50 [2] [nM] | IC50 (phospho-AKT at S473) [nM] | IC50 [3] [nM] | IC50 [4] [nM] | IC50 (p-4E-BP1 at T70) [nM] | Compound | inhibition at 1.67 µM ([3]; 1.67 μM, read-out: MCF-7 median inhibition at 1.67 μM (%)) [%] | inhibition at 1.67 µM ([4]; 1.67 μM, read-out: KPL-4 median inhibition at 1.67 μM (%)) [%]
970 | 1600 |  |  |  |  | NC1(c2ccc(-c3nc4c(O)nccn4c3-c3ccccc3)cc2)CCC1 [Example 1, 2-[4-(1-Aminocyclobutyl)phenyl]-3-phenylimidazo[1,2-a]pyrazin-8-ol] |  | 
 |  | 37 | 2400 | 10000 | 29 | CCOC(=O)c1cn2c(-c3ccccc3)c(-c3ccc(C4(N)CCC4)cc3)nc2cn1 [Example 5, Ethyl 2-[4-(1-aminocyclobutyl)phenyl]-3-phenylimidazo[1,2-a]pyrazine-6-carboxylate] | 40.6 | 15.2

Source: patent publication US9260435B2, “Substituted imidazopyrazines as Akt kinase inhibitors” (Bayer Intellectual Property GmbH, priority 2012, dated 2016)
